Test results published in US20240166635A1, “AMINOHETEROARYL KINASE INHIBITORS” (Anrui Biomedical Technology (Guangzhou) Co.,Ltd., priority 2020, published 2024).

Assays:
Type in all cases: biochemical
[1] = target: CDK2/CyclinE1 (Homo sapiens (Human), UniProt P24941); test: CDK2/CyclinE1 kinase inhibitory activity (Caliper mobility shift); conditions: read-out: CDK2/Cyclin El IC50
[2] = target: CDK1/CyclinB (Homo sapiens (Human), UniProt P06493); test: CDK1/CyclinB kinase inhibitory activity (Caliper mobility shift); conditions: read-out: CDK1/Cyclin B1 IC50
[3] = target: CDK9/CyclinT1 (Homo sapiens (Human), UniProt P50750); test: CDK9/CyclinT1 kinase inhibitory activity (Caliper mobility shift); conditions: read-out: CDK9/Cyclin T1 IC50
Chain of CDK9/CyclinT1 (P50750 whole entry): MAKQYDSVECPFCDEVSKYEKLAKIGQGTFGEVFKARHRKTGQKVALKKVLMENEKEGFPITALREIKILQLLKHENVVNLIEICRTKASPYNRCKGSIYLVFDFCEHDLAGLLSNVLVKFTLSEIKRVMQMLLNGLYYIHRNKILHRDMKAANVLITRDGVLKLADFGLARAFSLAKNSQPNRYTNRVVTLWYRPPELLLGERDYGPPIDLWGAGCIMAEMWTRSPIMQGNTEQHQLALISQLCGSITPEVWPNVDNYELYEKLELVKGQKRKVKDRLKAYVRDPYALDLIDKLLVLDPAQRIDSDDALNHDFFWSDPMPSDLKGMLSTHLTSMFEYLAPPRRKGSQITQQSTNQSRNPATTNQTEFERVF
Chain of CDK9/CyclinT1 (O60563 whole entry partner): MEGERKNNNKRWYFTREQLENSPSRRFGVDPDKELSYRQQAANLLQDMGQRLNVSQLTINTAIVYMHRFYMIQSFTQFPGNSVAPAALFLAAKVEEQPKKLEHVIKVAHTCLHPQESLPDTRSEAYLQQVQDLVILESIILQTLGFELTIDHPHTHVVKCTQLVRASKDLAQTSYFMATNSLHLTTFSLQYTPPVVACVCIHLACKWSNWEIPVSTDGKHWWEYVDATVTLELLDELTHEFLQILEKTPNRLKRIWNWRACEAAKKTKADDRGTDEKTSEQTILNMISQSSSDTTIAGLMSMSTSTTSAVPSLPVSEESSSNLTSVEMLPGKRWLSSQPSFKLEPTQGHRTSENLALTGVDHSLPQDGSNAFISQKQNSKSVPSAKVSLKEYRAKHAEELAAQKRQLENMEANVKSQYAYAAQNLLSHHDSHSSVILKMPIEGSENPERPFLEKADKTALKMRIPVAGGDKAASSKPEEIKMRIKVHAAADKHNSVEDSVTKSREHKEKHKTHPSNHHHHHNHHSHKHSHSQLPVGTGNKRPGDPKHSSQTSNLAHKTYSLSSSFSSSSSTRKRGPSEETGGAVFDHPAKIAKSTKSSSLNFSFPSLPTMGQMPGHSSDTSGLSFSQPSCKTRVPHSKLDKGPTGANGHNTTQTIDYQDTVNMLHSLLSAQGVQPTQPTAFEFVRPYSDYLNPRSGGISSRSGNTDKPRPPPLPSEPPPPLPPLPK

Chain of CDK1/CyclinB (P06493 whole entry): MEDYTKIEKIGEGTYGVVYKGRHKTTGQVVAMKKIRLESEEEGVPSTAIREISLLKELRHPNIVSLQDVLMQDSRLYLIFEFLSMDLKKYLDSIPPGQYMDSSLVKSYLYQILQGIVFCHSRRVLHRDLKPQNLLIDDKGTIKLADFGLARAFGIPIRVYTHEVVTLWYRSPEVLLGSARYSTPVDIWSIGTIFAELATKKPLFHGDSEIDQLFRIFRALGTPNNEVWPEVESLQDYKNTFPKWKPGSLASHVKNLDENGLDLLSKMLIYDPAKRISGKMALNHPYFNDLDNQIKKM
Chain of CDK1/CyclinB (P14635 whole entry partner): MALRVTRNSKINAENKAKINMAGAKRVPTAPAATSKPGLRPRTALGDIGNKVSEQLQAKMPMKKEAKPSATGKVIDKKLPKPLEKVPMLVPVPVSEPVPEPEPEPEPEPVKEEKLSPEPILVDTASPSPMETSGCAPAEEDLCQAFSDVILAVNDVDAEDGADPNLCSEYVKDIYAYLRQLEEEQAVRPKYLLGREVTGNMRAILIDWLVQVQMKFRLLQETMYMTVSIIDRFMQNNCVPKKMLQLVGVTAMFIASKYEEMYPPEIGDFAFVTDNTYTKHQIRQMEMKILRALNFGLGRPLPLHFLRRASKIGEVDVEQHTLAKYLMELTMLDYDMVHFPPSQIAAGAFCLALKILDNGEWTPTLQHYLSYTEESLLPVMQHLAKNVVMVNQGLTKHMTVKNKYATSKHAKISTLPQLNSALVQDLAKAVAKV

Structure (SMILES) | IC50 [1] | IC50 [2] | IC50 [3]
N#Cc1cnc(Nc2ccc(S(N)(=O)=O)cc2)nc1OCC1CCCC1O (single isomer, unassigned) [Example 19b] | < 10 nM | 10 to 100 nM | 100 to 1000 nM
CC(C)NS(=O)(=O)c1ccc(Nc2ncc(C#N)c(OC3CCCC3)n2)cc1 [Example 28] | < 10 nM | 10 to 100 nM | 100 to 1000 nM
CC(C)NS(=O)(=O)c1ccc(Nc2ncc(C#N)c(OC3CCCCC3O)n2)cc1 (single isomer, unassigned) [Example 30b] | 10 to 100 nM | 100 to 1000 nM | ≥ 1000 nM
N#Cc1cnc(Nc2ccc(S(N)(=O)=O)cc2)nc1OC1CCCC(O)C1 (single isomer, unassigned) [Example 21a] | < 10 nM | 100 to 1000 nM | 100 to 1000 nM
C[C@]1(O)CCC[C@H]1Oc1nc(NC2CCN(S(C)(=O)=O)CC2)ncc1C#N (relative stereo) [Example 3a, cis-4-((2-hydroxy-2-methylcyclopentyl)oxy)-2-((1-(methylsulfonyl)piperidin-4-yl)amino)pyrimidine-5-carbonitrile] | 10 to 100 nM | 100 to 1000 nM | ≥ 1000 nM
CC(C)NS(=O)(=O)c1ccc(Nc2ncc(C#N)c(OC3CCC(O)C3)n2)cc1 (single isomer, unassigned) [Example 29b] | < 10 nM | 10 to 100 nM | 100 to 1000 nM
CC1(O)CCCCC1Oc1nc(Nc2ccc(S(N)(=O)=O)cc2)ncc1C#N (single isomer, unassigned) [Example 24b] | 10 to 100 nM | 10 to 100 nM | 100 to 1000 nM
N#Cc1cnc(Nc2ccc(S(N)(=O)=O)cc2)nc1OC1CCCC1CO (single isomer, unassigned) [Example 18b] | < 10 nM | 10 to 100 nM | 100 to 1000 nM
CC1(O)CCCC1Oc1nc(Nc2ccc(S(N)(=O)=O)cc2)ncc1C#N (single isomer, unassigned) [Example 23b] | 10 to 100 nM | 100 to 1000 nM | 100 to 1000 nM
C[C@@H]1C[C@@H](O)CCN1c1nc(Nc2ccc(S(N)(=O)=O)cc2)ncc1C#N [Example 76] | 10 to 100 nM | 100 to 1000 nM | 100 to 1000 nM
N#Cc1cnc(Nc2ccc(S(N)(=O)=O)cc2)nc1O[C@@H]1CCCC[C@@H]1O (single isomer, unassigned) [Example 2b, cis-4-((5-cyano-4-((2-hydroxycyclohexyl)oxy)pyrimidin-2-yl)amino)benzenesulfonamide] | 10 to 100 nM | 100 to 1000 nM | ≥ 1000 nM
CC1CCCC1Oc1nc(Nc2ccc(S(N)(=O)=O)cc2)ncc1C#N (stereo not drawn) [Example 11] | < 10 nM | < 10 nM | 10 to 100 nM
N#Cc1cnc(Nc2ccc(S(=O)(=O)NC3CC(F)(F)C3)cc2)nc1OC1CCCCC1O (single isomer, unassigned) [Example 32b] | 10 to 100 nM | 100 to 1000 nM | ≥ 1000 nM
CC1(O)CCCC1Oc1nc(NC2CCN(S(=O)(=O)CC3CC3)CC2)ncc1C#N (single isomer, unassigned) [Example 38b] | 10 to 100 nM | 100 to 1000 nM | ≥ 1000 nM
N#Cc1cnc(Nc2ccc(S(N)(=O)=O)cc2)nc1OC1CCCCCC1O (single isomer, unassigned) [Example 22b] | < 10 nM | 10 to 100 nM | 100 to 1000 nM
N#Cc1cnc(Nc2ccc(S(N)(=O)=O)cc2)nc1OC1CCCC1CO (single isomer, unassigned) [Example 18a] | 10 to 100 nM | 100 to 1000 nM | 100 to 1000 nM
CC(C)CS(=O)(=O)N1CCC(Nc2ncc(C#N)c(OC3CCCC3(C)O)n2)CC1 (single isomer, unassigned) [Example 39b] | 10 to 100 nM | 100 to 1000 nM | ≥ 1000 nM
CCS(=O)(=O)N1CCC(Nc2ncc(C#N)c(OC3CCCC3(C)O)n2)CC1 (single isomer, unassigned) [Example 36a] | 10 to 100 nM | 100 to 1000 nM | ≥ 1000 nM
C[C@@H]1C[C@H](O)CCN1c1nc(Nc2ccc(S(N)(=O)=O)cc2)ncc1C#N [Example 75] | < 10 nM | 10 to 100 nM | 10 to 100 nM

More lines, now with the values ahead:

IC50 [1] | IC50 [2] | IC50 [3] | Structure (SMILES)
< 10 nM | 10 to 100 nM | 100 to 1000 nM | NS(=O)(=O)c1ccc(Nc2ncc(C(F)(F)F)c(O[C@H]3[C@@H]4CC[C@@H](C4)[C@H]3O)n2)cc1 (single isomer, unassigned) [Example 113b]
10 to 100 nM | 100 to 1000 nM | 100 to 1000 nM | CNS(=O)(=O)N1CCC(Nc2ncc(C(F)(F)F)c(OC3CCCCCC3O)n2)CC1 (single isomer, unassigned) [Example 123a]
10 to 100 nM | 100 to 1000 nM | 100 to 1000 nM | NS(=O)(=O)c1ccc(Nc2ncc(C(F)(F)F)c(OC3COCCC3O)n2)cc1 (single isomer, unassigned) [Example 115b]
< 10 nM | 100 to 1000 nM | 100 to 1000 nM | C=Cc1cnc(Nc2ccc(S(N)(=O)=O)cc2)nc1OC1CCCC1O (single isomer, unassigned) [Example 155b]
< 10 nM | < 10 nM | 10 to 100 nM | [2H]C([2H])([2H])NS(=O)(=O)c1ccc(Nc2ncc(CC)c(OC3CCOCC3(C)O)n2)cc1 (single isomer, unassigned) [Example 152a]
< 10 nM | 100 to 1000 nM | 100 to 1000 nM | [2H]C1([2H])CC(O)C(Oc2nc(Nc3ccc(S(=O)(=O)NC([2H])([2H])[2H])cc3)ncc2C(F)(F)F)C1 (single isomer, unassigned) [Example 110b]
10 to 100 nM | 100 to 1000 nM | 100 to 1000 nM | [2H]C([2H])([2H])NS(=O)(=O)c1ccc(Nc2ncc(C(F)(F)F)c(OC3CCCC3O)n2)cc1 (single isomer, unassigned) [Example 109b]
< 10 nM | 100 to 1000 nM | 100 to 1000 nM | NS(=O)(=O)c1ccc(Nc2ncc(C(F)(F)F)c(OC3CCCCC3O)n2)cc1 (single isomer, unassigned) [Example 111a]
10 to 100 nM | 100 to 1000 nM | 100 to 1000 nM | Cc1cnc(Nc2ccc(S(=O)(=O)NC(C)C)cc2)nc1OC1CCCC1O (single isomer, unassigned) [Example 147b]
10 to 100 nM | 100 to 1000 nM | 100 to 1000 nM | CC(C)NS(=O)(=O)c1ccc(Nc2ncc(C3CC3)c(O[C@@H]3CCC[C@@H]3O)n2)cc1 (single isomer, unassigned) [Example 134b, cis-4-((5-cyclopropyl-4-((2-hydroxycyclopentyl)oxy)pyrimidin-2-yl)amino)-N-isopropylbenzenesulfonamide]
10 to 100 nM | ≥ 1000 nM | ≥ 1000 nM | [2H]C([2H])([2H])NS(=O)(=O)c1ccc(Nc2ncc(Cl)c(OC3COCC3(C)O)n2)cc1 (single isomer, unassigned) [Example 140b]
10 to 100 nM | 100 to 1000 nM | ≥ 1000 nM | [2H]C([2H])([2H])NS(=O)(=O)c1ccc(Nc2ncc(C)c(OC3CCCC3O)n2)cc1 (single isomer, unassigned) [Example 148b]
< 10 nM | 100 to 1000 nM | 100 to 1000 nM | CC1(NS(=O)(=O)c2ccc(Nc3ncc(Br)c(O[C@@H]4CCC[C@@H]4O)n3)cc2)COC1 (single isomer, unassigned) [Example 131b, cis-4-((5-bromo-4-((2-hydroxycyclopentyl)oxy)pyrimidin-2-yl)amino)-N-(3-methyloxetan-3-yl)benzenesulfonamide]
10 to 100 nM | 100 to 1000 nM | ≥ 1000 nM | CS(=O)(=O)N1CCC(Nc2ncc(C(F)(F)F)c(OC3CCCCC3O)n2)CC1 (single isomer, unassigned) [Example 120b]
< 10 nM | 100 to 1000 nM | 100 to 1000 nM | CC1CCCC(O)C1Oc1nc(Nc2ccc(S(N)(=O)=O)cc2)ncc1C(F)(F)F (single isomer, unassigned) [Example 112b]
10 to 100 nM | ≥ 1000 nM | ≥ 1000 nM | [2H]C([2H])([2H])NS(=O)(=O)c1ccc(Nc2ncc(CC)c(OC3CCOCC3(C)O)n2)cc1 (single isomer, unassigned) [Example 152b]
< 10 nM | 10 to 100 nM | 100 to 1000 nM | CC1(O)CCCC1Oc1nc(Nc2ccc(S(N)(=O)=O)cc2)ncc1C1CC1 (single isomer, unassigned) [Example 154b]
10 to 100 nM | ≥ 1000 nM | ≥ 1000 nM | [2H]C([2H])([2H])NS(=O)(=O)c1ccc(Nc2ncc(CC)c(OC3COCCC3(C)O)n2)cc1 (single isomer, unassigned) [Example 153b]
< 10 nM | 100 to 1000 nM | 100 to 1000 nM | [2H]C([2H])([2H])NS(=O)(=O)c1ccc(Nc2ncc(Br)c(OC3CCCC3O)n2)cc1 (single isomer, unassigned) [Example 143b]
< 10 nM | 10 to 100 nM | 10 to 100 nM | NS(=O)(=O)c1ccc(Nc2ncc(C(F)(F)F)c(OC3CCCCCC3O)n2)cc1 (single isomer, unassigned) [Example 118b]
10 to 100 nM | 100 to 1000 nM | 100 to 1000 nM | CS(=O)(=O)N1CCC(Nc2ncc(C(F)(F)F)c(OC3CCCCCC3O)n2)CC1 (single isomer, unassigned) [Example 121b]
10 to 100 nM | 100 to 1000 nM | ≥ 1000 nM | Cc1cnc(Nc2ccc(S(=O)(=O)NC3CC3)cc2)nc1OC1CCCC1O (single isomer, unassigned) [Example 146b]
10 to 100 nM | ≥ 1000 nM | ≥ 1000 nM | [2H]C([2H])([2H])NS(=O)(=O)c1ccc(Nc2ncc(CC)c(OC3CCOCC3O)n2)cc1 (single isomer, unassigned) [Example 151b]
< 10 nM | 100 to 1000 nM | 100 to 1000 nM | NS(=O)(=O)c1ccc(Nc2ncc(C(F)(F)F)c(O[C@H]3[C@@H]4CC[C@@H](C4)[C@H]3O)n2)cc1 (single isomer, unassigned) [Example 113a]
